Results as given in patent publication US11385234B2, “Methods and systems for detecting an analyte or classifying a sample” (Commonwealth Scientific and Industrial Research Organisation, priority 2012, dated 2022).
One block for each compound: values may come before it.

How the values were obtained:
OGOR = experiment: Diacetyl assay with original OGOR sensor (native RLuc), microwell; format: biochemical, C. elegans; settings: original OGOR sensor incorporating native RLuc
Excerpt: (§1) Chimaeric BRET^2 tagged odorant receptors have the BRET^2 components inserted into the third intracellular loop (IC3) and at the C-terminus of the C. elegans odorant receptor with green fluorescent protein, GFP^2 at IC3 and Renilla luciferase, RLuc at the C-terminus of the protein (OGOR). Using site-directed mutagenesis the RLuc2 mutations were introduced into the pYES-DEST-52 OGOR sequence. Primers 1 and 2 (Table 3) were used to introduce the mutation C124A and primer pair 3 and 4 was used to introduce the M185 V mutation to make the construct named OGOR2 (FIG. 18, SEQ ID NO:1, SEQ ID NO-2).
(§2) All ligand solutions were prepared directly in water. The OGOR concentration was normalized using GFP^2 intensity at 510 nm. Assays were carried out in 96-well plates (Perkin-Elmer) in a total volume of 100 μL in phosphate buffered saline. OGOR was incubated with each ligand for 45 minutes at 28° C. in wells sealed with Topseal-A™ (Packard).
Following the incubation, Coelenterazine 400a substrate (Biosynth) was added to a final concentration of 5 μM.
BRET^2 signals were calculated as the ratio of emission intensity at 515 nm to that at 410 nm. All data are reported as the mean±standard deviation (SD) or mean±standard error of the mean (SEM) as described in the text. […]

OGOR2 [1] = experiment: Real-time on-chip microfluidic diacetyl assay with OGOR2; format: biochemical, C. elegans; settings: 1 fM diacetyl, 290 nM protein, 12.5 μM substrate, flow rates 50, 100, 200 and 300 μl/hr
Procedure: On-chip real-time measurements were carried out in a three-inlet microfluidic mixer device integrated with an optical detection chamber. […] The second inlet contained diacetyl (2,3-butanedione) diluted to give a final concentration of 1 fM in PBS, or PBS only as a control. The third inlet was used to introduce sensor protein suspension, which was prepared by resuspending the membrane pellet describe above in 1 mL of PBS and further diluting as required. The on-chip mixing was initiated by using input flow rates ranging from 50-400 μl/hr.
(§3) BRET^2 signals were calculated as the ratio of emission intensity at 515 nm to that at 410 nm. All data are reported as the mean±standard deviation (SD) or mean±standard error of the mean (SEM) as described in the text. Curves were fitted with log [agonist] vs response curves with variable slopes following normalization of data, using Graphpad Prism version 5.03 for Windows. Two-tailed unpaired t-tests were carried out in Graphpad prism. Statistical significance was defined as p<0.05.

OGOR2 [2] = experiment: Endpoint on-chip microfluidic diacetyl assay with OGOR2; format: biochemical, C. elegans
Procedure: Endpoint microfluidic assays were carried out on-chip in two inlet microfluidic mixer devices integrated with an optical detection chamber. […] OGOR and OGOR2 membrane pellets were resuspended in 1 mL of PBS, diluted as required and incubated at 28° C. for 45 minutes with diacetyl solution at concentrations ranging from 1 aM-1 μM. The preparation was introduced in the second inlet. On-chip mixing was initiated with an input flow rate of 400 μl/hr for each inlet.
as §3

OGOR2 [3] = experiment: Diacetyl detection with highly diluted OGOR2, wide bore chamber and liquid light guide; format: biochemical, C. elegans; settings: 1 μM diacetyl
Procedure: On-chip measurements were carried out with a microfluidic chip similar to that shown in FIG. 31A with two inlets, a passive mixing element and a detection chamber. An aluminium mirror was placed on top of the reaction chamber to enhance the BRET signal.
A number of variations were compared with the original set up (FIG. 31A). The diameter of the reaction chamber was increased to 4 mm (FIG. 34A) from an original diameter of 2 mm. The height of the reaction chamber was varied between 1 and 2 mm. A single optical fiber of diameter 0.4-1.0 mm (FIG. 31A) was replaced with a liquid light guide or fibre-optic bundle of 5 mm core diameter NA=0.59, feeding into a dichroic block (FIG. 34A), or a bifurcated light guide of trunk core diameter 6 mm branch core diameter of 4 mm (FIG. 37) or a multifurcated light guide of trunk core diameter 8 mm and branch core diameter 4 mm (FIGS. 38 and 40).
OGOR2 sensor solution was prepared at day 4 in PBS at high (100 and 50 times) dilution ratios from stock solution. Clz400a was prepared in PBS at 31.25 μM. When diacetyl was included, it was added to the OGOR2 sensor solution at a final concentration of 1 μM. For the control experiment, only DI water was added. The sensor tubes without and with diacetyl were both incubated at 28° C. in 30 min.

[4] = system: OGOR2 (ODR-10 receptor fused to RLuc2 and GFP^2); experiment: Diacetyl assay with OGOR2, 96-well plate BRET^2; format: biochemical, C. elegans
Excerpt: as §1
Yeast colonies were inoculated in 10 mL SCMM-U (S. cerevisiae minimal media, composition per 200 mL: 1.34 g […] without amino acids and 0.38 g yeast supplementation media without uracil) supplemented with 2% glucose and incubated overnight at 28° C. An aliquot of the overnight culture was used to inoculate SCMM-U supplemented with 2% raffinose and 2% galactose to a final O.D..600 of 0.4 and incubated for an additional 72 h at 15° C. with shaking at 200 rpm.
Cell cultures were centrifuged at 1500×g for 5 minutes at 4° C. Cells were resuspended in 1 mL of sterile water and centrifuged for 1 minute at 10,000×g. Cells were resuspended in 4 mL phosphate buffer solution (PBS). The cells were lysed by French press (˜18000 psi) and cellular debris was removed by centrifugation at 15000×g (4° C.) for 15 minutes. Following this the supernatant fraction was centrifuged at 40,000 rpm (Beckman Coulter L-80 ultra-centrifuge) for 1 hour at 4° C. The supernatant was decanted and the membrane pellet was resuspended in 1 mL of PBS and stored at 4° C. for 48 hrs.
as §2, with “(Packard). […]” for “(Packard).”
BRET^2 signals were calculated as the ratio of emission intensity at 515 nm to that at 410 nm. […]

[5] = system: SGSR-114/113 (BRET^2 tagged str-114/113 chimera); experiment: BRET^2 response of SGSR-114/113 to volatile ligands, plate based; format: biochemical, C. elegans; settings: in vitro
Excerpt: SGSRs are chimaeras of C. elegans str-112, str-113, str-114, str-115, str-116 and str-114/113 with the BRET^2 tags GFP^2 and RLuc or RLuc2 inserted in the third intracellular loop and at the C-terminus, respectively. The positions of the third intracellular loops of STR proteins were predicted using “TMAP” an algorithm from “The Biology Workbench” (a web-based tool for prediction of transmembrane segments http.//seqtool.sdsc.edu). These were named SGSR-112, SGSR-113, SGSR-114/113, SGSR-114, SGSR-115 and SGSR-116.
Except for SGSR-112, which was commercially synthesised, SGSR expression cassettes were designed and made by introducing multiple restriction sites into the relevant gene-specific PCR primers. PCR products containing those sites were cloned into TOPO PCR vectors (Invitrogen) and then digested with the corresponding restriction enzymes (REs) and ligated into the expression cassettes.
The SGSR 114/113 chimera was constructed by modifying C. elegans SGSR-113 (by replacing the first fragment of str-13, 113-1 using the restriction sites NcoI and BspEI in the cassette with the corresponding fragment of str-114, str-114-1). Str114-1 contains the first 720 str-114 nucleotides of, corresponding to its first 240 amino acids and was amplified by high fidelity PCR using primers incorporating the restriction sites, NcoI at the 5′ end and BspEI at the 3′ end.
The inventors selected a number of specific volatiles (including 1-hexanol, 1 butanol, butane-2,3-dione, 3-hydroxybutanone, 2-pentanone and 2 nonanone) for further testing based on GC-MS analysis of the headspace of OP50 bacteria grown on LB. […] This is the first time that a volatile ligand (or indeed any ligand) has been identified for a BRET-based GPCR sensor, in the absence of prior knowledge of the ligand based on research with the unmodified parental GPCR.

[6] = target: GMR sensor (GFP^2—MBP—RLUC2) (Escherichia coli, UniProt P0AEX9); settings: 0.1 mM sugar
Procedure: On-chip measurements were carried out with microfluidic mixers with two inlets, a passive micromixer and an integrated optical detection chamber. BRET^2 measurements were recorded by using two photo multiplier tubes one equipped with an RLuc/Clz400a emission filter (410 nm bandpass 80 nm) and the other with a GFP^2 emission filter (515 nm bandpass 30m). The optical emission was collected by using an optical fiber with 1 mm core diameter aligned with on-chip optical detection chamber through a dichroic mirror.
The preparation was then mixed on-chip with 5 μM coelenterazine 400a and the optical signal was recorded from the detection chamber. The control experiments was carried out by incubating protein preparations with water and mixing on the chip under the same conditions.
Sensitivity assays were carried out on a two input microfluidic mixing device (FIG. 8b) with a serpentine common channel of L=18 mm. The BRET reaction chamber was Ø=4 mm and H=1 mm with no mirror. A bifurcated light guide was used with a 6 mm trunk and NA=0.59. […] The incubated sample and 31.25 μM Clz400a substrate were each pumped onto the chip at input flow rates of 400 μl/hr. The trunk end of the light guide was used to collect signal from the BRET reaction chamber. […] The BRET^2 signal was measured at each concentration. […]

GFP^2—MBP—RLuc2 = GFP^2—MBP—RLuc2 (Escherichia coli, UniProt P0AEX9); experiment: BRET^2 tagged MBP sugar assay, plate reader; format: binding
Procedure: 1 μM purified protein was used for all the energy transfer assays (final volume of 100 μL). […] Purified protein was incubated with the sugar dissolved in double deionised water or water for 30 minutes at 28° C.
(§4) BRET ratios were calculated as the ratio of maximum acceptor emission intensity to maximum donor emission intensity.
All data analysis was carried out using GraphPad Prism (version 5 for Windows, Graphpad Software, San Diego, Calif., USA). All data will be reported as means± standard deviation (SD) unless otherwise stated in the text. Two-tailed unpaired t-tests will be performed using Graphpad prism. Statistical significance is defined as p<0.05.

GFP^2—MBP—RLuc2 W140A = experiment: BRET^2 tagged MBP W140A mutant, plate reader; format: binding; settings: 0.1 mM maltose
Procedure: The W140 mutation was introduced into pRSET GFP^2—MBP—RLuc2 using site-directed mutagenesis (Stratagene) using primers C1 ([…]) (SEQ ID NO:11) and C2 ([…]) (SEQ ID NO:12). Nucleotide and amino acid sequences for BRET^2 tagged MBP receptor provided a SEQ ID NOs: 3 to 6).
1 μM purified protein was used for all the energy transfer assays (final volume of 100 μL). 1 μM purified protein was prepared by diluting the protein in phosphate buffer solution (PBS, 0.058 M […], 0.017 NaH2PO4, 0.068 M NaCl (pH 7.4)). Purified protein was incubated with the sugar dissolved in double deionised water or water for 30 minutes at 28° C. Following incubation 16.67 μM coelenterazine 400a was added and the signal was recorded immediately.
as §4

[7] = target: T1, FLIPmal-2μ (FRET tagged MBP receptor) (Escherichia coli, UniProt P0AEX9); settings: cited from earlier work
T1 construct: fused on or other part: FRET pair fused to the N- and C-terminus of MBP; From Fehr et al. 2002 these are a cyan and a yellow GFP variant

EC50 (OGOR2 [2]; on-chip microfluidic endpoint): ~10 aM
decrease in BRET^2 signal ([4]; 1 μM diacetyl, microplate wells): 21.4%
EC50 ([4]; microwell plate): 11.4 aM
linear range of dose-dependent response ([4]; microwell plate, six log units): 10^−18 to 10^−12 M
Compound: CC(=O)C(C)=O [diacetyl, 2,3-butanedione]
percentage change in BRET^2 signal in response to diacetyl (OGOR): 32%
decrease in BRET^2 ratio (OGOR2 [1]): 27.4%
decrease in BRET^2 signal (OGOR2 [2]; 10 fM diacetyl, microfluidic endpoint): 36.9%
Diacetyl-dependent reduction in BRET^2 ratio (OGOR2 [3]; 50 times sensor dilution): 14.7%
Diacetyl-dependent reduction in BRET^2 ratio (OGOR2 [3]; 100 times sensor dilution): 13.7%
detectable level [5]: parts per quadrillion (sub pM) levels

Compound: OC[C@H]1O[C@@](CO)(O[C@H]2O[C@H](CO)[C@@H](O)[C@H](O)[C@H]2O)[C@@H](O)[C@@H]1O [sucrose]
increase in BRET^2 ratio over no sugar control, on chip [6]: 15%
response of BRET biosensor to sugar (GFP^2—MBP—RLuc2; 0.1 mM sugar, 30 minutes at 28° C., 1 μM protein): did not respond

Compound: OC[C@H]1O[C@H](O[C@H]2[C@H](O)[C@@H](O)C(O)O[C@@H]2CO)[C@H](O)[C@@H](O)[C@@H]1O (mixture of isomers) [maltose]
BRET^2 response to maltose (GFP^2—MBP—RLuc2 W140A): abolished
signal change, FRET ([7]; Fehr et al., 2002): ~12%
linear range of FRET response ([7]; two log units): 0.26 to 21.12 µM
incubation time at which BRET^2 response reached a maximum (GFP^2—MBP—RLuc2; 0.1 mM maltose): 30 min
